Assay results taken from ChEMBL document CHEMBL1201862, “PubChem BioAssay data set” (2004).
Calls of active or inactive are those of the source.

Columns and labels:
[1] = biological target: T1, Mitochondrial peptide methionine sulfoxide reductase (Bos taurus, UniProt P54149); experiment: Absorbance-based biochemical high throughput dose response assay for activators of Methionine sulfoxide reductase A (MsrA).; assay type: functional
T1 sequence (P54149 whole entry): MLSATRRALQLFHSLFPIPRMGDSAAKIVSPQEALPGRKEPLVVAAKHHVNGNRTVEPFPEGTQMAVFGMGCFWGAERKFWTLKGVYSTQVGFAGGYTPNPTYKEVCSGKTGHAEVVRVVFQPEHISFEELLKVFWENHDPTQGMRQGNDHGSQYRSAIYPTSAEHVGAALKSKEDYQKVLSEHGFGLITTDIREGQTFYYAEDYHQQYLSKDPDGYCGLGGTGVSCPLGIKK

Vero = experiment: cells; assay type: functional; settings: Chlorocebus sabaeus
[2] = inhibitors of intracellular T. cruzi replication, confirmation, NIH3T3 host cells, beta-gal luminescence (AID 2044); assay type: functional, cell-based;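 note: intracellular parasites grown in NIH/3T3 mouse fibroblasts as host cells; luminescent beta-galactosidase reporter signal from transgenic T. cruzi replicating inside host cells; inhibitors lower the luminescence signal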
[3] = cytotoxicity toward NIH3T3 fibroblasts, dose response, counter-screen, cell-based, ATP luminescence, mouse fibroblasts (AID 2010); assay type: functional;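 note: cells exposed to compound for about 90 hours before reading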
[4] = AlphaScreen signal interference compounds, dose response, artefact control for ARNT-TACC3 interaction inhibitor project, biochemical, luminescence, cherry-pick (AID 651705); assay type: functional;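 note: AlphaScreen bead proximity signal that flags compounds interfering with the detection technology; potency reflects signal decrease which marks the compound as an assay artifact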
[5] = ARNT/TACC3 interaction disruptors, potency, confirmation, biochemical, AlphaScreen, cherry-picked samples (AID 651703); assay type: functional, Homo sapiens;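 note: His-tagged ARNT PAS-B domain paired with GST-TACC3 E629A dimer coactivator fragment; potency of inhibitors that break up the complex and lower AlphaScreen signal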
[6] = biological target: T2, DNA repair protein RAD52 homolog (Homo sapiens, UniProt P43351); assay type: functional, biochemical
T2 sequence (P43351 whole entry): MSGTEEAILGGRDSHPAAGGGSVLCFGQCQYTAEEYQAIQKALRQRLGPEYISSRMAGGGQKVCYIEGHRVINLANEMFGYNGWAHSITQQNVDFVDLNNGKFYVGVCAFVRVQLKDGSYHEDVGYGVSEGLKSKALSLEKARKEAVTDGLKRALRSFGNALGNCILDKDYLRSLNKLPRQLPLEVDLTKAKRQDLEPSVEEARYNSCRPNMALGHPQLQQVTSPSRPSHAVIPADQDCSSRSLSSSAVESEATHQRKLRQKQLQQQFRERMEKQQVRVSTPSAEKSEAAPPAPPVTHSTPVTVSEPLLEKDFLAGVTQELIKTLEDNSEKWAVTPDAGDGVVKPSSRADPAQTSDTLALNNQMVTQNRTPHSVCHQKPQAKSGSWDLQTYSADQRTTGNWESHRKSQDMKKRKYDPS

Leucine aminopeptidase = biological target: T3, Leucine aminopeptidase (Plasmodium falciparum 3D7, UniProt Q8IL11); experiment: P. falciparum M17LAP inhibitors, primary screen, biochemical, fluorogenic H-Leu-NHMec substrate, 1536-well (AID 1619); assay type: functional
T3 sequence (Q8IL11 whole entry): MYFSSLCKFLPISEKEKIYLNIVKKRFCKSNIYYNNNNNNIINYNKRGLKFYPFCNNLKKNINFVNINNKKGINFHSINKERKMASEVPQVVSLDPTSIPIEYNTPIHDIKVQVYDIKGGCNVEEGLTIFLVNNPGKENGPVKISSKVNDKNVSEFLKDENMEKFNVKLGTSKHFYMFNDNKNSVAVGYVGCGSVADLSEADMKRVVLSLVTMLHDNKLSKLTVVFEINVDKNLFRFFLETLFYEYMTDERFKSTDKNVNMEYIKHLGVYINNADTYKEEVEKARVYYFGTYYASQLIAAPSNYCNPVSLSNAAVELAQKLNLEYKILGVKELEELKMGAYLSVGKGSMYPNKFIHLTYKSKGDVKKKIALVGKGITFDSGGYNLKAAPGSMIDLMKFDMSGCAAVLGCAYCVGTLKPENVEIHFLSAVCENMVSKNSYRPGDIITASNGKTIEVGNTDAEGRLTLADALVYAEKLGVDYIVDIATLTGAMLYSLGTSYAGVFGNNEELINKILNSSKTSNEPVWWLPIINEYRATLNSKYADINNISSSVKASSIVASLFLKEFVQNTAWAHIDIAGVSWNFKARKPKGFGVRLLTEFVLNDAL

Cytochrome P450 2C9 = Cytochrome P450 2C9 (Homo sapiens, UniProt P11712)
Cytochrome P450 2C19 = Cytochrome P450 2C19 (Homo sapiens, UniProt P33261); experiment: Cytochrome panel assay with activity outcomes. Panel member name: p450-cyp2c19 Compounds with AC50 equal or less than 10 uM are considered active; assay type: functional; settings: read-out: AC50
[7] = biological target: T4, Sentrin-specific protease 7 (Homo sapiens, UniProt Q9BQF6); experiment: SENP7 protease inhibitors, SAR follow-up, biochemical, luminescence (AID 504497); assay type: functional
T4 sequence (Q9BQF6 whole entry): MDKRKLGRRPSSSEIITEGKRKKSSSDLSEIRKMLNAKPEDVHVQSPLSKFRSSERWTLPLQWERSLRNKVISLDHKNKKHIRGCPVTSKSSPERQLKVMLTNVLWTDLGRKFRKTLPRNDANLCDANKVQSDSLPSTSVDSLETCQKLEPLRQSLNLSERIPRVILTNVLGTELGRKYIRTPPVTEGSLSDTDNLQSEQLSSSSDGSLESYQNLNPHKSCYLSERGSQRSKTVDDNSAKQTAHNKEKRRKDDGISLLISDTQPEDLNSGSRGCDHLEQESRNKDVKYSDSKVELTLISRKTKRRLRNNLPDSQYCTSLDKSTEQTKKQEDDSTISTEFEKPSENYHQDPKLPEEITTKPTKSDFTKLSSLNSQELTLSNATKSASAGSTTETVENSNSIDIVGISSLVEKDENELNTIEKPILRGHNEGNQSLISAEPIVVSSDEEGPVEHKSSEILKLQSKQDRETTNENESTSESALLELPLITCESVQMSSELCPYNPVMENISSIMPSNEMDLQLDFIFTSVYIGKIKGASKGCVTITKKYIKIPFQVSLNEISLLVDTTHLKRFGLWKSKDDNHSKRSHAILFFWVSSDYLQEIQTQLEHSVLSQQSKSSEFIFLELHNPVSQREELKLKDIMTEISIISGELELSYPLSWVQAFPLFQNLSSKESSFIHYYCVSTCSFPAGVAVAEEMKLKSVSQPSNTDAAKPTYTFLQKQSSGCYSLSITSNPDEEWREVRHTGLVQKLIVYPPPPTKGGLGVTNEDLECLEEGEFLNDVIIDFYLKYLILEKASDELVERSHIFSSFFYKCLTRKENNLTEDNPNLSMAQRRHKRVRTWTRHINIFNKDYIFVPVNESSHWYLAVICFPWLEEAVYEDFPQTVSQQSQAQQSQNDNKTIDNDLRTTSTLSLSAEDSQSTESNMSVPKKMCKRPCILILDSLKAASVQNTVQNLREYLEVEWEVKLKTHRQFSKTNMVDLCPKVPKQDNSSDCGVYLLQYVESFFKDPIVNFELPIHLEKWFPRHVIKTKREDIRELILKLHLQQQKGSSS

[8] = biological target: T5, Sentrin-specific protease 8 (Homo sapiens, UniProt Q96LD8); experiment: SENP8 protease inhibitors, SAR follow-up, biochemical, luminescence (AID 504501); assay type: functional
T5 sequence (Q96LD8 whole entry): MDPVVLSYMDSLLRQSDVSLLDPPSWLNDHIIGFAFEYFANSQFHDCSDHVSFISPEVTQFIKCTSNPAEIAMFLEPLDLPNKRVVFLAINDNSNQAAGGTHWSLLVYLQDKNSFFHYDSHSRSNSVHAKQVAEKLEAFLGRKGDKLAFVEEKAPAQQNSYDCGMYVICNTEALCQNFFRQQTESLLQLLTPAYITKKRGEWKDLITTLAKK

Caspase-3 = biological target: T6, Caspase-3 (Homo sapiens, UniProt P42574); experiment: SAR Analysis of small molecule inhibitors of Sentrin-specific proteases (SENPs) using a Caspase-3 Selectivity assay. [Related pubchem assays (depositor defined):AID2540, AID2599, AID434973, AID489001]; assay type: functional
T6 sequence (P42574 whole entry): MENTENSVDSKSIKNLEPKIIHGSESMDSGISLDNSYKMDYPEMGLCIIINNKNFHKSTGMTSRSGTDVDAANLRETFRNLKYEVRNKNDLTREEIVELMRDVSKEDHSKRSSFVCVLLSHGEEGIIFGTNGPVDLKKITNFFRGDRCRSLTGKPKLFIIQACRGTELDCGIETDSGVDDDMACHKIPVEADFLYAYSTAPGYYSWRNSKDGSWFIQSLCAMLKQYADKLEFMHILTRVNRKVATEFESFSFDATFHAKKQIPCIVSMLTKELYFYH

[9] = biological target: T7, Sentrin-specific protease 6 (Homo sapiens, UniProt Q9GZR1); experiment: SAR Analysis of small molecule inhibitors of Sentrin-specific protease 6 (SENP6) using a Luminescent assay. [Related pubchem assays (depositor defined):AID2582, AID2599]; assay type: functional
T7 sequence (Q9GZR1 whole entry): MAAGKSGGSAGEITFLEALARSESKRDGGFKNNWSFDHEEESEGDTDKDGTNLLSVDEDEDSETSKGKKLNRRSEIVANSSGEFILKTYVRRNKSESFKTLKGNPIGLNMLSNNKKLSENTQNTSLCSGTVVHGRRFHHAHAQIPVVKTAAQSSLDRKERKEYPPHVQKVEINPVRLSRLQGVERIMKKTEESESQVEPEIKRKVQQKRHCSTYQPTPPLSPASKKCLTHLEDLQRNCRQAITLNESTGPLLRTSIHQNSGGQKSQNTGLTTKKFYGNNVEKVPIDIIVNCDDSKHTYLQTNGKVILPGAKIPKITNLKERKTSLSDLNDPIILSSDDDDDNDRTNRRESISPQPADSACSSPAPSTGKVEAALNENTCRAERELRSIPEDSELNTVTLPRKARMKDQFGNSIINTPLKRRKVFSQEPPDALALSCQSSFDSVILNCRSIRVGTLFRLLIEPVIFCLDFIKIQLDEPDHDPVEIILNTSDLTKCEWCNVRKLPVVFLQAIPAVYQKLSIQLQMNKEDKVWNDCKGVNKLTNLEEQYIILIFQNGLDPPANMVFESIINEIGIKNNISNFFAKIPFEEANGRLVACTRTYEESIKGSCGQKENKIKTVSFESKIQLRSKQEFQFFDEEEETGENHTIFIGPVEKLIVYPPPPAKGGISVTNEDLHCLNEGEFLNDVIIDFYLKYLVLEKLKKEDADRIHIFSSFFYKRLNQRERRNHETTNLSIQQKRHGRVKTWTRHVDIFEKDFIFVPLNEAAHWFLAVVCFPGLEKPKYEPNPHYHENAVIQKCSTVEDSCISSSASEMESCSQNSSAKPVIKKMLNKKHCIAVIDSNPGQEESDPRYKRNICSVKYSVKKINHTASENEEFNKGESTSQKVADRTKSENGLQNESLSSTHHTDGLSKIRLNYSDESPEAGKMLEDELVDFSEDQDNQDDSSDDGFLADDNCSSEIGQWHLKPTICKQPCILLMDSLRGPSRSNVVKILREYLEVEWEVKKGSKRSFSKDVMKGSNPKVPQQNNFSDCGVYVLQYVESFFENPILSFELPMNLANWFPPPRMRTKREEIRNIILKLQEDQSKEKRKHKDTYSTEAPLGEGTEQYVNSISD

Melanocortin receptor 4 = Melanocortin receptor 4 (Homo sapiens, UniProt P32245); assay type: functional, cell-based;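 note: Cell-based assay with luminescence read-out, confirmatory dose-response testing for agonist activity of biased ligands at MC4R; human U2OS cells with tagged receptor and beta-arrestin; potency of agonists that increase receptor coupling to beta-arrestin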
[10] = biological target: T8, Aryl hydrocarbon receptor (Homo sapiens, UniProt P35869); settings: Potency;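 note: confirmatory quantitative high-throughput screen measuring activation of the AhR signaling pathway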
T8 sequence (P35869 whole entry): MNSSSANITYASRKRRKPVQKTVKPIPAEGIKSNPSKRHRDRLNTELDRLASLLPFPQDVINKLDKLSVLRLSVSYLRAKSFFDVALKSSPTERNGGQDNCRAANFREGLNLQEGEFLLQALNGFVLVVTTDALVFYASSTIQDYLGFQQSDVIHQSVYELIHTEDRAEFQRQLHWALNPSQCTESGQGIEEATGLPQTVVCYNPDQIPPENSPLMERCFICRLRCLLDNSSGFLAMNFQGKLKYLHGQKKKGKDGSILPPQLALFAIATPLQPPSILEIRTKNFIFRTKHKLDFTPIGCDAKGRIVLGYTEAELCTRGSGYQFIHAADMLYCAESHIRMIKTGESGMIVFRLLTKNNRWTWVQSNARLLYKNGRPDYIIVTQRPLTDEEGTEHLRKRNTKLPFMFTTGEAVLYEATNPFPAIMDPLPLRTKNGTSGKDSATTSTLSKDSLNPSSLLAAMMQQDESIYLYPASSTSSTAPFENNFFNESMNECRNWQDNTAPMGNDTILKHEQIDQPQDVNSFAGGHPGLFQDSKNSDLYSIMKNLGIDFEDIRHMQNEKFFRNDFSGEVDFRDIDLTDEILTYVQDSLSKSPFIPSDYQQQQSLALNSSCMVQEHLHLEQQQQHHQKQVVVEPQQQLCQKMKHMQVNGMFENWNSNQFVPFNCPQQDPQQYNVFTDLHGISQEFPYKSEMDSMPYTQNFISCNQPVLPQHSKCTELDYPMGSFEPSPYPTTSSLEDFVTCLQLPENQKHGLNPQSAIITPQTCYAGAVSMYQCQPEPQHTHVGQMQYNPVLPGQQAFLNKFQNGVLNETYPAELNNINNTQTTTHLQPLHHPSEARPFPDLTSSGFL

Sequence of Melanocortin receptor 4 (P32245 whole entry): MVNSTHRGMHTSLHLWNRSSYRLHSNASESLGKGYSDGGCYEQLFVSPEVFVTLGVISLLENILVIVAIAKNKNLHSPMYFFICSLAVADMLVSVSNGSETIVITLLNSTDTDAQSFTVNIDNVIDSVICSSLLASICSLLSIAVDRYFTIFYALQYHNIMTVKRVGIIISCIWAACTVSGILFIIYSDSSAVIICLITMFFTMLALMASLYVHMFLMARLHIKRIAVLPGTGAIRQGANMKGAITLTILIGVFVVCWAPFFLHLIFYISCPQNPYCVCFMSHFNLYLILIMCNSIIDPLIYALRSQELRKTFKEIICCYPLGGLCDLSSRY
Sequence of Cytochrome P450 2C9 (P11712 whole entry): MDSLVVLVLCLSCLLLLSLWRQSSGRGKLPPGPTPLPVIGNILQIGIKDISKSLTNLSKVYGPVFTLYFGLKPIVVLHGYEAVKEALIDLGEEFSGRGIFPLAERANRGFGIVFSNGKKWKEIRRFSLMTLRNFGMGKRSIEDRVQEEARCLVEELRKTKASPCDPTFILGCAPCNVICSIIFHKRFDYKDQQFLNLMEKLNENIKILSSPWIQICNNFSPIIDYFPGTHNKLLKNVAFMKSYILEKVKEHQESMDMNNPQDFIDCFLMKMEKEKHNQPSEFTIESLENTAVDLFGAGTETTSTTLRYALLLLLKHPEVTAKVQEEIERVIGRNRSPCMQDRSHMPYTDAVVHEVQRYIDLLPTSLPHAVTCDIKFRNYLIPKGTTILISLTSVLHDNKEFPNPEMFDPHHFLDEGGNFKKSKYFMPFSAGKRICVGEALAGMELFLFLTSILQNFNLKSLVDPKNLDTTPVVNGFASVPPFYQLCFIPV
Sequence of Cytochrome P450 2C19 (P33261 whole entry): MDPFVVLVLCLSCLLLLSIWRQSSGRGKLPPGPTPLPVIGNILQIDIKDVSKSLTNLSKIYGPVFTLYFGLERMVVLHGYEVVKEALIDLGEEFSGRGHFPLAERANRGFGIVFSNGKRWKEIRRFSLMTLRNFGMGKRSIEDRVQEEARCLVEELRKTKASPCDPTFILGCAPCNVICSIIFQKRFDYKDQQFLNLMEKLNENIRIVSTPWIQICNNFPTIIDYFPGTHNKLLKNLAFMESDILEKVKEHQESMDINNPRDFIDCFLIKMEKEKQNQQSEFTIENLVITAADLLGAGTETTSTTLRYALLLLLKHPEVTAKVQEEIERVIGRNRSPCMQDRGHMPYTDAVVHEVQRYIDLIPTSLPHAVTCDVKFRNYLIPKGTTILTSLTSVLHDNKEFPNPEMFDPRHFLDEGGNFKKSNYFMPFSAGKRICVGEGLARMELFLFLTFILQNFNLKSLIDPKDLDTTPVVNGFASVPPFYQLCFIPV

Cc1ccc(C)c2nc3sc(C(=O)N4CCOCC4)c(N)c3cc12
EC50 [1]: > 104 µM (inactive)

COc1cc2nc(Nc3ccc(C)c(C)c3)nc(N)c2cc1OC
CC50 (Vero): 14.8 µM (active)
EC50 [2]: 0.559 µM (active)
EC50 [3]: > 30 µM (not active)
AC50 [4]: 89.2 µM (active)
AC50 [5]: 74.1 µM (active)
AC50 [6]: 5.47 µM (active)

Sc1nc2cc(Cl)ccc2s1
IC50 (Leucine aminopeptidase): 14.8 µM (active)
AC50 (Cytochrome P450 2C9): 39.8 µM (inconclusive)
AC50 (Cytochrome P450 2C19): 11.2 µM (inconclusive)
EC50 [1]: > 104 µM (inactive)

CS(=O)(=O)c1ccc(N/N=C/c2c[nH]c3ccccc23)cc1
IC50 [7]: > 99 µM (inactive)
IC50 [8]: > 99 µM (inactive)
IC50 (Caspase-3): > 99 µM (inactive)
IC50 [9]: > 99 µM (inactive)

O=C(NC(c1ccc(Cl)cc1)c1ccccn1)C1CCN(CCOc2ccc(Cl)cc2Cl)CC1 (stereo unspecified)
EC50 (Melanocortin receptor 4): > 89.2 µM (inactive)

COc1ccc(C(=O)Nc2ccc3ccccc3c2)cc1Br
IC50 [7]: > 99 µM (inactive)
IC50 [8]: > 99 µM (inactive)
IC50 (Caspase-3): > 99 µM (inactive)
IC50 [9]: > 99 µM (inactive)

COP(=O)(OC)SCn1c(=O)oc2cc(Cl)cnc21 [AZAMETHIPHOS]
AC50 [10]: 44.7 µM (inconclusive)
